Paper PMC2850174 (The Journal of biological chemistry, 2007)
Values belong to the molecule of their own block, whether it stands above or below them.

Tests used:
HEX-1 = molecular target: T1, HEX-1 (Caenorhabditis elegans, UniProt Q22492); experiment: p-nitrophenylglycoside hydrolysis assay, Dixon plot; format: biochemical
T1 sequence (Q22492 19-555 limits assumed): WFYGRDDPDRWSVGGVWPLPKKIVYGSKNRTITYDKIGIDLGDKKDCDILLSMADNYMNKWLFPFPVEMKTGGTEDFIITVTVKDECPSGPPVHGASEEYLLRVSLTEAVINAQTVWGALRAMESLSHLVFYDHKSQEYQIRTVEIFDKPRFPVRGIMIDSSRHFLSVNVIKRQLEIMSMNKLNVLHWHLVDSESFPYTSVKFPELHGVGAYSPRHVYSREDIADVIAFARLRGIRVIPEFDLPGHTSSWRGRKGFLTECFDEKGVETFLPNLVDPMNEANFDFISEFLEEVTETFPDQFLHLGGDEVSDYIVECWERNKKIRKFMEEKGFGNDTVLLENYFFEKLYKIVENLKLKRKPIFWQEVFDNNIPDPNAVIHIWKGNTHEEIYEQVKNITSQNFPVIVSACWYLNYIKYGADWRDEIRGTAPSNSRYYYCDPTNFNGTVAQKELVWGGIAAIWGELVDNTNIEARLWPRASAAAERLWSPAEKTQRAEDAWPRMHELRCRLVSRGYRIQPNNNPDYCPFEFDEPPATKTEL

AtHEX1 [1] = molecular target: T2, AtHEX1 (Arabidopsis thaliana, UniProt Q8L7S6); experiment: p-nitrophenylglycoside hydrolysis assay; format: biochemical
T2 sequence (Q8L7S6 25-535 limits assumed): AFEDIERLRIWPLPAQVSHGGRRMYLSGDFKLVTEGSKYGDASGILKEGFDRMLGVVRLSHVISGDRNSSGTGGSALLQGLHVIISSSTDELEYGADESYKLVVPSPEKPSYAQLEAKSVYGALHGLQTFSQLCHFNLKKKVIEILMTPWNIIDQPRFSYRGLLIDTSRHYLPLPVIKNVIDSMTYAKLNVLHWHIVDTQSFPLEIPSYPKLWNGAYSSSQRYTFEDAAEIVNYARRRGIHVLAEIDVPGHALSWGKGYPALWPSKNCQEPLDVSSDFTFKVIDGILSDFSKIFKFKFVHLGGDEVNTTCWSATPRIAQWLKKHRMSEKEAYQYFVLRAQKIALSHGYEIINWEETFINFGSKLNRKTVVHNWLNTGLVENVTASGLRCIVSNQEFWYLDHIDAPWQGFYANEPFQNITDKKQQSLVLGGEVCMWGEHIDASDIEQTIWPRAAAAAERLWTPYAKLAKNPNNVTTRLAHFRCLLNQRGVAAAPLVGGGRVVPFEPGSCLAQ

AtHEX1 [2] = molecular target: T2, AtHEX1; experiment: p-nitrophenylglycoside hydrolysis assay, single concentration; format: biochemical; settings: read-out: % inhibition at 0.1 mM
HEX-3 = molecular target: T3, HEX-3 (Caenorhabditis elegans, UniProt A7DY67); experiment: GnGn-PA digestion, RP-HPLC; format: biochemical; settings: read-out: % inhibition at 200 μM
T3 sequence (A7DY67 31-591 limits assumed): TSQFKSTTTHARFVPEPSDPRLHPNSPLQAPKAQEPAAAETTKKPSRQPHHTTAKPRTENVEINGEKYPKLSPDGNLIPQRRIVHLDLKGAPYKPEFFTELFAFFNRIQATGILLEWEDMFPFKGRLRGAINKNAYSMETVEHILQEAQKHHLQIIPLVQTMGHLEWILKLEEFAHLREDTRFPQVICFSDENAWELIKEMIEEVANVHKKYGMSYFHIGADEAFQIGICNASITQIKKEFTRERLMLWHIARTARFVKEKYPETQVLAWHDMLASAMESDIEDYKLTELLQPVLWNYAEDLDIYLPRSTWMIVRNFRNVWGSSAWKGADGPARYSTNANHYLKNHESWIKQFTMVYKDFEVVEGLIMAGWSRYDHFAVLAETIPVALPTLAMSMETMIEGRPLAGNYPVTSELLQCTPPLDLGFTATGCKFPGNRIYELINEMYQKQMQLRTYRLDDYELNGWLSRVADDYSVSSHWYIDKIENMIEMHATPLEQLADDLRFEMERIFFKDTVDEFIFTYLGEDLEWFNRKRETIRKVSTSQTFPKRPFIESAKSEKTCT

HEX-2 = molecular target: T4, HEX-2 (Caenorhabditis elegans, UniProt G5EFL1); experiment: GnGn-PA digestion, RP-HPLC; format: biochemical; settings: read-out: % inhibition at 200 μM
T4 sequence (G5EFL1 36-596 limits assumed): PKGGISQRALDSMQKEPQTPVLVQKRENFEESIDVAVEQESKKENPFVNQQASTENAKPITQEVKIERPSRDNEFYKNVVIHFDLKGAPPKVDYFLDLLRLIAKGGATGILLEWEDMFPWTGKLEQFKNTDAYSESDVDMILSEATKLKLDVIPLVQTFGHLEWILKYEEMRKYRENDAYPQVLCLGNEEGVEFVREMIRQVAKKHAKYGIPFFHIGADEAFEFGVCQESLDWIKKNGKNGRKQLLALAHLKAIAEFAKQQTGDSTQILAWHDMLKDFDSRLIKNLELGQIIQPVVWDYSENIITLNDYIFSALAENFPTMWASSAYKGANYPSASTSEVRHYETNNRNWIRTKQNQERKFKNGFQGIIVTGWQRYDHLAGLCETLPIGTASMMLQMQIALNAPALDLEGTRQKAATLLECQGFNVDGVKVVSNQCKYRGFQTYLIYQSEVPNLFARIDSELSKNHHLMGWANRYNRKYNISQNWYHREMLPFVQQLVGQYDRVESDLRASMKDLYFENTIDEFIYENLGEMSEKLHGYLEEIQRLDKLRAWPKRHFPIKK

purified protein = substrate: CC(=O)N[C@H]1[C@H](Oc2ccc([N+](=O)[O-])cc2)O[C@H](CO)[C@@H](O)[C@@H]1O; experiment: purified protein

Ki (HEX-1): ~1000 µM
p-nitrophenylglycoside hydrolysis assay (about 50% inhibition at 0.2 mM) (AtHEX1 [1]): about 50% inhibition at 0.2
Molecule: CC(=O)N[C@H]1CN[C@H](CO)[C@@H](O)[C@@H]1O [2-acetamido-1,2-dideoxynojirimycin, 2-acetamido-1,2,5-trideoxy-1,5-imino-D-glucitol]

inhibition at 100 µM (AtHEX1 [2]): ~90%
Ki (HEX-1): ~2 µM
Molecule: CC(=O)N[C@H]1/C(=N/OC(=O)Nc2ccccc2)O[C@H](CO)[C@@H](O)[C@@H]1O [PUGNAc, O-(2-acetamido-2-deoxy-D-glucopyranosylidene)amino N-phenylcarbamate]

Molecule: CC(=O)N[C@H]1CN2CC[C@H](O)[C@@H]2[C@@H](O)[C@@H]1O
inhibition at 200 µM (HEX-3): ~80%
inhibition at 200 µM (HEX-2): ~80%

B1: HEX-1 (Caenorhabditis elegans) (protein)
chain: WFYGRDDPDRWSVGGVWPLPKKIVYGSKNRTITYDKIGIDLGDKKDCDILLSMADNYMNKWLFPFPVEMKTGGTEDFIITVTVKDECPSGPPVHGASEEYLLRVSLTEAVINAQTVWGALRAMESLSHLVFYDHKSQEYQIRTVEIFDKPRFPVRGIMIDSSRHFLSVNVIKRQLEIMSMNKLNVLHWHLVDSESFPYTSVKFPELHGVGAYSPRHVYSREDIADVIAFARLRGIRVIPEFDLPGHTSSWRGRKGFLTECFDEKGVETFLPNLVDPMNEANFDFISEFLEEVTETFPDQFLHLGGDEVSDYIVECWERNKKIRKFMEEKGFGNDTVLLENYFFEKLYKIVENLKLKRKPIFWQEVFDNNIPDPNAVIHIWKGNTHEEIYEQVKNITSQNFPVIVSACWYLNYIKYGADWRDEIRGTAPSNSRYYYCDPTNFNGTVAQKELVWGGIAAIWGELVDNTNIEARLWPRASAAAERLWSPAEKTQRAEDAWPRMHELRCRLVSRGYRIQPNNNPDYCPFEFDEPPATKTEL
Km (purified protein): 1100 µM
